From patent US20230330093A1, “APPLICATION OF NITROGEN-CONTAINING SATURATED HETEROCYCLIC COMPOUND” (SHANGHAI PHARMACEUTICALS HOLDING CO., LTD., priority 2020, published 2023)
Where “and” joins values, the source holds several entries; their conditions need not be identical. Equal values may be shown once. Entries after “also recorded” stand apart in the source; their conditions may differ.

Columns and labels:
[1] = system: rhesus monkeys with spontaneous chronic kidney disease; assay: Effect on blood pressure (SBP, DBP, MBP, HR) after anesthesia, 8-week administration; assay type: in vivo, Macaca mulatta (Rhesus Macaque); conditions: for DBP reduced by on average, compared with the baseline / SBP reduced by on average, compared with the baseline: after W8 administration
Text: (§1) In the trial, animals were brought in three stages.
Route of administration: Oral administration.
After anesthesia, the animal was placed in a supine position. The left upper arm was shaved clean, and a suitable size cuff was tied according to the standard. The blood oxygen probe was clamped on the animal's finger or toe (except for the left hand), and the red light-sensitive surface was on the side of the finger pad. The blood pressure of the animal was continuously measured for 3 times in the automatic mode with an interval of 1 min. If the difference of DBP, SBP and MBP of blood pressure measured more than three times was not significant (the difference between the highest value and the lowest value was less than 15 mmHg), the measurement was completed.
Testing equipment: GE B40i electrophysiological monitor.
See Table 16 for the effects of administration of each administration group on blood pressure. The blood pressure test of primates required anesthesia, so it was necessary to control the variability of heart rate at various time points to make statistics.

[2] = system: rhesus monkeys with spontaneous chronic kidney disease; assay: Safety tolerance study (adverse events, liver and renal function, food intake, body weight, hematology), 8-week administration; assay type: in vivo, Macaca mulatta (Rhesus Macaque); conditions: 1, 2, 5 mg/kg qd groups, 8-week administration period
Text: Glucose and lipid metabolism and liver function: FPG, FRA, LDL-c, HDL-c, TG, TC, NT-proBNP, ALT, AST, TBIL, etc., twice before administration, once at weeks 4 and 8 respectively after administration;
Other biochemical indicators and hematology testing, once each before and after administration;
Body weight: once before administration, once a week during the administration period;
Hematology testing equipment: Siemens ADVIA 2120i Hematology Systems.
Number of observations: Observation was performed once a day.
Observation method: observation in cage.
Observation content: injection site, skin, hair, eyes, ears, nose, oral cavity, chest, abdomen, urogenital, limbs and other parts, as well as breathing, exercise, urinary, defecation and behavior changes.
Feeding method: Food was supplied once at 8:009:00 in the morning, 10:00 in the morning, 2:00 in the afternoon, and 4:00 in the afternoon, respectively, to ensure that there was food in the food box and animals ate freely. The remaining feed was removed at 07:40-8:00 in the next day.
Feeding amount: about 250-500 g/animal/day. In the experiment, it was ensured that there was feed in the food box for 24 hours, and the animals can eat freely.
Method for measuring food intake: The feed was estimated by a semi-quantitative method, and the amount of food given, the amount discarded and the remaining amount in food boxes were recorded every day. […]

[3] = system: rhesus monkeys with spontaneous chronic kidney disease; assay: Effect on heart function, cardiac Doppler ultrasound, 8-week administration
Procedure: as §1
This was performed once before administration and once after administration. UACR=MALB/Cr—U. • Blood pressure: the blood pressure was checked after anesthesia, including systolic blood pressure (SBP), diastolic blood pressure (DBP), mean blood pressure (MBP) and heart rate (HR). This was performed once before administration and once at weeks 4 and 8 respectively after administration. • Cardiac GE Doppler ultrasound: historical cardiac ultrasonography once within 1 year (selected animals), once before administration (within 30 days (D-30) of the baseline period), and once at week 8 after administration.
Anesthesia method: 15 mg/kg of ketamine hydrochloride was used for intramuscular injection anesthesia. According to the animal anesthesia state, the supplemental anesthesia will be performed after judgment by veterinarian. Each supplemental anesthesia dose was ½ of the initial dose.
Detection method: The animal was placed in the left decubitus position, and the 6S-RS probe (frequency 2.7-8.0 MHz) was used for image acquisition.
Analysis method: After the image was collected and saved, the supporting analysis workstation EchoPAC Software was used to repeatedly detect various indicators of systolic and diastolic functions in 3 consecutive cardiac cycles.
Testing indicators and ultrasonic technology: see Table 9 below.
Testing equipment: GE Vivid S5 color Doppler ultrasound diagnostic system.

[4] = 2 mg/kg qd (n = 5), 4 weeks, mean
[5] = 2 mg/kg qd (n = 5), 8 weeks, mean
[6] = 2 mg/kg qd (n=5), P<0.01 vs placebo
[7] = 5 mg/kg qd (n = 6), 8 weeks, mean
[8] = 5 mg/kg qd (n=6), p<0.01 vs placebo

COC(=O)NCCCn1nc([C@@H](C)N(C(=O)[C@H]2CNCCO2)C2CC2)c2ccc(C)nc21.O=C(O)C[C@H](O)C(=O)O [malate of compound of Formula I]
DBP ([1]; 2 mg/kg qd (n = 5), 4 weeks): 55 mmHg and 83 mmHg and 66 mmHg | SBP ([1]; 2 mg/kg qd (n = 5), 4 weeks): 110 mmHg and 163 mmHg and 138 mmHg | DBP [1, 4]: 71 ± 11 mmHg | SBP [1, 4]: 140 ± 20 mmHg | DBP ([1]; 2 mg/kg qd (n = 5), 8 weeks): 52 mmHg and 70 mmHg and 62 mmHg and 73 mmHg | SBP ([1]; 2 mg/kg qd (n = 5), 8 weeks): 102 mmHg and 160 mmHg and 121 mmHg and 133 mmHg | DBP [1, 5]: 64 ± 8 mmHg | SBP [1, 5]: 128 ± 21 mmHg | DBP ([1]; 2 mg/kg qd (n = 5), Baseline): 58 mmHg and 56 mmHg and 78 mmHg and 83 mmHg and 74 mmHg | DBP ([1]; 2 mg/kg qd (n = 5), Baseline, mean): 70 ± 12 mmHg | SBP ([1]; 2 mg/kg qd (n = 5), Baseline, single animals and Mean ± SD): 126 mmHg and 111 mmHg and 184 mmHg and 143 mmHg and 137 mmHg | SBP ([1]; 2 mg/kg qd (n = 5), Baseline, single animals and Mean ± SD, mean): 140 ± 27 mmHg | DBP reduced by on average, compared with the baseline [1, 6]: 9±8 mmHg | SBP reduced by on average, compared with the baseline [1, 6]: 19±9 mmHg | SBP ([1]; 5 mg/kg qd (n = 6), 4 weeks): 136 mmHg and 124 mmHg and 159 mmHg and 144 mmHg and 139 mmHg | SBP ([1]; 5 mg/kg qd (n = 6), 4 weeks, mean): 138 ± 12 mmHg | DBP ([1]; 5 mg/kg qd (n = 6), 8 weeks): 57 mmHg and 97 mmHg and 60 mmHg and 59 mmHg | SBP ([1]; 5 mg/kg qd (n = 6), 8 weeks): 114 mmHg and 161 mmHg and 121 mmHg and 128 mmHg | DBP [1, 7]: 66 ± 15 mmHg | SBP [1, 7]: 129 ± 16 mmHg | DBP ([1]; 5 mg/kg qd (n = 6), Baseline): 63 mmHg and 105 mmHg and 74 mmHg and 97 mmHg and 70 mmHg and 71 mmHg | DBP ([1]; 5 mg/kg qd (n = 6), Baseline, mean): 80 ± 17 mmHg | SBP ([1]; 5 mg/kg qd (n = 6), Baseline, single animals and Mean ± SD): 132 mmHg and 159 mmHg and 127 mmHg and 180 mmHg and 154 mmHg and 149 mmHg | SBP ([1]; 5 mg/kg qd (n = 6), Baseline, single animals and Mean ± SD, mean): 150 ± 19 mmHg | DBP reduced by on average, compared with the baseline [1, 8]: 10±7 mmHg | SBP reduced by on average, compared with the baseline [1, 8]: 21±8 mmHg | activity of lowering blood pressure ([1]; 1-5 mg/kg qd for 8 weeks): showed the activity of lowering the blood pressure; also recorded: the activity of lowering blood pressure was shown | adverse events related to administration [2]: no adverse events related to administration | changes in liver function, renal function, food intake, body weight, hematological indicators [2]: no significant changes were observed | E/Ea ([3]; 1 mg/kg (n = 5), 8 weeks): 10.68 and 11.36 and 8.16 and 8.95 and 10.64 | Ea ([3]; 1 mg/kg (n = 5), 8 weeks): 5.35 cm/s and 5.65 cm/s and 6.99 cm/s and 5.37 cm/s and 5.06 cm/s | LVEF ([3]; 1 mg/kg (n = 5), 8 weeks): 63.95% and 55.81% and 54.03% and 61.01% and 49.37% | E/Ea ([3]; 1 mg/kg (n = 5), Baseline): 10.50 and 9.53 and 9.22 and 8.68 and 10.36 | Ea ([3]; 1 mg/kg (n = 5), Baseline): 5.90 cm/s and 6.31 cm/s and 4.81 cm/s and 5.18 cm/s and 6.37 cm/s | LVEF ([3]; 1 mg/kg (n = 5), Baseline, single animals and Mean ± SD): 65.25% and 55.89% and 54.86% and 69.87% and 47.92% | E/Ea ([3]; 2 mg/kg (n = 5), 8 weeks): 10.63 and 6.35 and 7.84 and 9.88 and 6.22 | Ea ([3]; 2 mg/kg (n = 5), 8 weeks): 5.00 cm/s and 6.66 cm/s and 8.01 cm/s and 5.91 cm/s and 6.82 cm/s | LVEF ([3]; 2 mg/kg (n = 5), 8 weeks): 58.54% and 67.80% and 57.13% and 58.03% and 62.85% | LVEF ([3]; 2 mg/kg (n = 5), Baseline, single animals and Mean ± SD): 54.41% and 70.41% and 57.45% and 57.90% and 62.76% | E/Ea ([3]; 5 mg/kg (n = 6), 8 weeks): 7.38 and 9.25 and 8.22 and 6.12 and 11.07 | Ea ([3]; 5 mg/kg (n = 6), 8 weeks): 8.53 cm/s and 8.26 cm/s and 6.47 cm/s and 8.40 cm/s and 6.62 cm/s | LVEF ([3]; 5 mg/kg (n = 6), 8 weeks): 62.99% and 45.89% and 73.88% and 54.16% and 55.90% | LVEF ([3]; 5 mg/kg (n = 6), Baseline, single animals and Mean ± SD): 63.71% and 42.11% and 71.95% and 49.98% and 59.46% | LVEF % compared with the baseline ([3]; 5 mg/kg, 8-week administration, 2 animals (No. 5073 and No. 287) with low ejection fraction): increased LVEF % | adverse reaction in the systolic and diastolic function (echocardiography) ([3]; rhesus monkey, in vivo): no obvious adverse reaction
